Laboratory results from patent publication US9138466B2, “Factor H for transplantation” (Baxter International Inc., priority 2013, dated 2015).
Several values for one entry are separate records, joined by “and”; a condition that tells them apart may be missing. Identical values can stand only once. Like-named read-outs stand apart in the source and are kept apart here. Marks after values point to notes of the source that are not given here.

Columns and labels:
Assay type in all cases: in vivo
[1] = test system: collagen antibody-induced arthritis in Balb C mice; test: Mouse CAIA, hind paw volume / footpad swelling (Example 4); set-up: Mean Disease Burden / Hind Limb Volume, Mean Diff. / Total Disease, Mean Diff.: unit not given here; conditions: for Total Footpad Thickness, Day of Study 8: day 8; for Total Footpad Thickness, Day of Study 11: day 11; for Total Footpad Thickness, Day of Study 12: day 12; for Total Footpad Thickness, Day of Study 13: day 13; for Total Footpad Thickness, Day of Study 15: day 15; for Total Footpad Thickness, Day of Study 19: day 19; for Total Footpad Thickness, Day of Study 22: day 22; for % Disease Suppression: footpad thickness AUC vs vehicle; for Total Disease Burden (AUC): footpad thickness days 8-22, in mL·day
[2] = test system: collagen antibody-induced arthritis in Balb C mice; test: Mouse CAIA, clinical score (Example 4); set-up: key to Mean Maximum Clinical Score: scored 0 to 60, sum of 4 limbs
[3] = test system: collagen antibody-induced arthritis in Balb C mice; test: Mouse CAIA, histopathology of hind limbs (ankle, H & E) (Example 4)
[4] = Mouse CAIA, body weight and tolerability (Example 4)
Description: Balb C mice (n=10 per cohort) were used to determine the efficacy of Factor H (FH) during transplant rejection. The mice were treated with ArthritoMAb (anti-collagen) antibody cocktail (2 mg, i.v.) on day 1, followed 7 days later with an injection of LPS (50 μg, i.p.). On day 8, hind paw volumes were measured for each animal and distributed to various treatment groups.
Hind paw volumes were measured on day 8, 11, 12, 13, 15, 19 and 22 (endpoint). The age at start date was 7 to 9 weeks. Body weights were measured bi-weekly to the endpoint (Table 4). At the endpoint, tissue samples were processed for histology and submitted to a pathologist for independent analysis. Sampling 1 was performed at the endpoint. The hind limbs were preserved in 10% formalin. Sampling 2 was performed at the endpoint for group 4 animals. Blood was collected by terminal cardiac puncture. The blood was processed for anti-coagulant. The kidneys were additionally preserved in formalin and followed with 70% EtOH. Samples were scored for inflammation, pannus (granulation tissue), cartilage damage, bone resorption and exostosis (Table 5).

[5] = Dunnett's Multiple Comparison Test, G1 vehicle vs treatment
[6] = Dunnett's Multiple Comparison Test, vehicle vs treatment
[7] = Dunn's Multiple Comparison Test, G1 vehicle vs treatment
[8] = ankle, group mean, score 0 = normal to 5 = severe
[9] = ankle, individual animal, score 0 = normal to 5 = severe
[10] = ankle, individual animal, score 0 = normal to 5 = severe, listed as Group 2

SMILES: C[C@@H]1C[C@H]2[C@@H]3CCC4=CC(=O)C=C[C@]4(C)[C@@]3(F)[C@@H](O)C[C@]2(C)[C@@]1(O)C(=O)CO [Dexamethasone]
- Mean Disease Burden ([1]; AUC of combined footpad volume over baseline, days 8 to 22, group mean, vehicle 1.93): −0.32***
- Total Disease, 95% CI of diff [1, 5]: 1.50 to 3.00
- Total Disease, Mean Diff. [1, 5]: 2.25
- Total Disease, Summary [1, 5]: *** (***= P < 0.001)
- Total Disease, q [1, 5]: 7.36
- Hind Limb Volume, 95% CI of diff [1, 6]: 0.09687 to 0.2080
- Hind Limb Volume, Mean Diff. [1, 6]: 0.1524
- Hind Limb Volume, Summary [1, 6]: *** (***= P < 0.001)
- Hind Limb Volume, q [1, 6]: 6.877
- Total Footpad Thickness, Day of Study 8 ([1]; group mean, n 10): 0.35 mL
- Total Footpad Thickness, Day of Study 8 ([1]; individual animals (A# 1-10)): 0.42 mL and 0.39 mL (2×) and 0.37 mL and 0.35 mL and 0.34 mL and 0.33 mL and 0.31 mL (2×) and 0.3 mL
- Total Footpad Thickness, Day of Study 11 ([1]; group mean, n 10): 0.32 mL
- Total Footpad Thickness, Day of Study 11 ([1]; individual animals (A# 1-10)): 0.30 mL and 0.34 mL and 0.32 mL (3×) and 0.3 mL (3×) and 0.35 mL and 0.31 mL
- Total Footpad Thickness, Day of Study 12 ([1]; group mean, n 10): 0.34 mL
- Total Footpad Thickness, Day of Study 12 ([1]; individual animals (A# 1-10)): 0.34 mL (4×) and 0.28 mL and 0.35 mL and 0.32 mL and 0.31 mL and 0.39 mL and 0.37 mL
- Total Footpad Thickness, Day of Study 13 ([1]; group mean, n 10): 0.33 mL
- Total Footpad Thickness, Day of Study 13 ([1]; individual animals (A# 1-10)): 0.31 mL (2×) and 0.3 mL (2×) and 0.36 mL and 0.38 mL (2×) and 0.33 mL and 0.35 mL and 0.29 mL
- Total Footpad Thickness, Day of Study 15 ([1]; group mean, n 10): 0.31 mL
- Total Footpad Thickness, Day of Study 15 ([1]; individual animals (A# 1-10)): 0.37 mL and 0.33 mL and 0.29 mL (3×) and 0.38 mL and 0.26 mL and 0.3 mL (2×) and 0.27 mL
- Total Footpad Thickness, Day of Study 19 ([1]; group mean, n 10): 0.34 mL
- Total Footpad Thickness, Day of Study 19 ([1]; individual animals (A# 1-10)): 0.35 mL (4×) and 0.28 mL and 0.3 mL and 0.38 mL and 0.37 mL and 0.32 mL and 0.0 mL
- Total Footpad Thickness, Day of Study 22 ([1]; group mean, n 10): 0.31 mL
- Total Footpad Thickness, Day of Study 22 ([1]; individual animals (A# 1-10)): 0.39 mL and 0.42 mL and 0.3 mL and 0.32 mL and 0.29 mL (2×) and 0.35 mL (2×) and 0.31 mL and 0.25 mL
- % Disease Suppression ([1]; group mean, n 10): 116.49%
- % Disease Suppression ([1]; individual animals (A# 1-10)): 139.7% and 129.0% and 162.5% and 125.0% and 114.5% and 102.9% and 104.7% and 87.3% and 96.1% and 101.3%
- Total Disease Burden (AUC) ([1]; group mean, n 10): −0.32
- Total Disease Burden (AUC) ([1]; individual animals (A# 1-10)): −0.77 and −0.51 and −1.21 and −0.54 and −0.28 and −0.06 and −0.09 and 0.25 and 0.10 and −0.02
- Maximum Δ Mean Volume ([1]; mean combined foot pad volume, day 8 vs median day of maximal swelling, vehicle 0.21): 0.03*** ml
- % Disease Suppression (vs Vehicle) ([1]; percent decrease in total disease burden relative to vehicle): 116.5%
- Clinical Score, Difference in rank sum [2, 7]: 23.95
- Clinical Score, Summary [2, 7]: *** (***= P < 0.001)
- Clinical score, Mean ([2]; day 8, group mean n=10): 4.00
- Clinical score ([2]; day 8, individual animal): 5 (2×) and 10 (3×) and 0 (5×)
- Clinical score, Mean ([2]; day 11, group mean n=10): 0.10
- Clinical score ([2]; day 11, individual animal): 0 (9×) and 1
- Clinical score, Mean ([2]; day 12, group mean n=10): 5.70
- Clinical score ([2]; day 12, individual animal): 0 (3×) and 10 (4×) and 5 (2×) and 7
- Clinical score, Mean ([2]; day 13, group mean n=10): 6.00
- Clinical score ([2]; day 13, individual animal): 0 (4×) and 10 (6×)
- Clinical score, Mean ([2]; day 15, group mean n=10): 0.00
- Clinical score ([2]; day 15, individual animal): 0
- Clinical score, Mean ([2]; day 19, group mean n=10): 0.00
- Clinical score ([2]; day 19, individual animal): 0
- Clinical score, Mean ([2]; day 22, group mean n=10): 0.00
- Clinical score ([2]; day 22, individual animal): 0
- Day (of Max Clin Score), Mean ([2]; group line 'Mean', day of study): 12.00
- Max Clin Score, Mean ([2]; group mean n=10): 9.20
- Max Clin Score ([2]; individual animal): 5 and 10 (8×) and 7
- Day (of Max Clin Score) ([2]; individual animal, day of study): 8 (4×) and 13 (2×) and 12 (4×)
- Mean Maximum Clinical Score ([2]; scored from 0 to 60, sum of 4 limbs, vehicle 45.4): 9.2***
- Score From H & E, Bone Resorption [3]: 0.8 ± 0.9
- Cartilage, Difference in rank sum [3, 7]: 9.25
- Composite, Difference in rank sum [3, 7]: 14.05
- Composite, Summary [3, 7]: * (*= P < 0.05)
- Exostosis, Difference in rank sum [3, 7]: 13.1
- Exostosis, Summary [3, 7]: ** (**= P < 0.01)
- Inflammation, Difference in rank sum [3, 7]: 14.95
- Inflammation, Summary [3, 7]: ** (**= P < 0.01)
- Pannus, Difference in rank sum [3, 7]: 11.4
- Composite Histopathaligy Score ([3]; ankle, group mean): 0.2 ± 0.1
- Score From H & E, Cartilage Damage [3, 8]: 0.9 ± 0.8
- Score From H & E, Inflammation [3, 8]: 0.3 ± 0.1
- Score From H & E, Pannus [3, 8]: 0.1 ± 0.1
- Score From H & E, Periosteal Exostotic Changes [3, 8]: 0.9 ± 0.8
- Score From H & E, Bone Resorption [3, 9]: 0
- Score From H & E, Cartilage Damage [3, 9]: 0
- Score From H & E, Periosteal Exostotic Changes [3, 9]: 0
- Score From H & E, Inflammation [3, 10]: 0 (9×) and 1
- Score From H & E, Pannus [3, 10]: 1 and 0 (9×)
- Composite Histopathaligy Score ([3]; ankle, individual animal, listed as Group 2): 3 and 0 (8×) and 1
- Bone Resorption ([3]; histopathology summary, graded 1-5, vehicle 0.6 ± 0.3): 0 ± 0^ns
- Pannus ([3]; histopathology summary, graded 1-5, vehicle 1.0 ± 0.3): 0.1 ± 0.1^ns
- Inflammation ([3]; histopathology summary, graded 1-5, vehicle 2.0 ± 0.5): 0.1 ± 0.1
- Exostosis ([3]; histopathology summary, graded 1 to 5, vehicle 2.6 ± 0.5): 0 ± 0
- Cartilage Damage ([3]; histopathology summary, vehicle 0.5 ± 0.2): 0 ± 0^ns
- Composite Score ([3]; histopathology summary, vehicle 6.7 ± 1.7): 0.2 ± 0.1
- Body Weight, Wt (g), Mean ([4]; day 1, group mean n=10, before dosing start (day 8)): 17.7 g
- Body Weight, Wt (g), Mean ([4]; day 5, group mean n=10, before dosing start (day 8)): 17.9 g
- Body Weight, Wt (g), Mean ([4]; day 8, group mean n=10): 16.3 g
- Body Weight, Wt (g), Mean ([4]; day 12, group mean n=10): 16.8 g
- Body Weight, Wt (g), Mean ([4]; day 15, group mean n=10): 16.7 g
- Body Weight, Wt (g), Mean ([4]; day 19, group mean n=10): 16.5 g
- Body Weight, Wt (g), Mean ([4]; day 22, group mean n=10): 16.5 g
- Mean Body Weigh at Nadir ([4]; lowest group mean body weight as % change from day 1, vehicle −8.0%): −7.7%
